US8993247B2, “Assay for vascular calcification” (King's College London, priority 2010, dated 2015)

Tests used:
[1] = system: human smooth muscle cells; type: cell-based
Experimental: A—VSMCs were incubated in the absence or presence of high Ca/P (2.5 mM Ca and 2.5 mM P) in 2% FBS/M199 media for 5 days and subjected to alizarin D staining Quantification shown graphically in B. Mean±SD, n=3. C—pictures of VSMCs were taken using light microscopy of alizarin-D stained VSMCs. 1.5—BSA control; 2.6−+5 mM GW4869; 3.7−+1.3% DSMO; 4.8−+1 uM Y-27632.

[2] = system: human smooth muscle cells; assay: Matrix vesicle release by VSMCs (western blot of CD63 and Fetuin A in MV lysates, CD63 densitometry); type: cell-based; conditions: matrix vesicle markers CD63 and Fetuin A in MV lysates, n=3
Experimental: Panel B, quantification of matrix vesicle release by VSMCs was performed using densitometry analysis of CD63, presented in MV as defined by western-blot analysis (shown in A). Mean±SD, n=3.

SMILES: Cl.Cl.O=C(/C=C/c1ccc(/C=C/C(=O)Nc2ccc(C3=NCCN3)cc2)cc1)Nc1ccc(C2=NCCN2)cc1 [GW4869]
- apoptosis of GW4869-treated VSMCs with high Ca and P compared with without (VSMCs): not increased
- number of VSMCs in wells [1]: dramatic reduction in the number of VSMCs
- matrix vesicles release by human smooth muscle cells [2]: inhibition of matrix vesicles release

SMILES: C[C@@H](N)[C@H]1CC[C@H](C(=O)Nc2ccncc2)CC1 [Y 27632]
- calcification of VSMCs ([1]; high Ca/P (2.5 mM Ca and 2.5 mM P), media with 2% serum, 5 days, 5 mM GW4869, 1 uM Y-27632): had no effect
